Structures are written as SMILES.

Test [1] has as its system U87MG cells. The experiment in a line: Cell proliferation assay for U87MG cells. Format: cell-based. The procedure: The adult glioblastoma cell line U87MG was obtained from a commercial source (ATCC). The pancreatic cancer cell line PANC-1 was obtained from a local laboratory (Indiana University). Both lines were grown in Iscove's Modified Dulbecco's Medium with 10% fetal bovine serum (FBS) at 37° C. and 5% CO2.
Compounds (1), (2), (3), (4), and (5), which are shown and described above, were each dissolved in ethanol at 10 mg/mL. A measured portion of the solution was pipetted into a microcentrifuge tube. Then, the ethanol was evaporated from each tube using a SpeedVac®, leaving just the compound in the tube. The appropriate amount of chloroform was added to the tube to produce a 0.1 M concentration. The solutions were placed on ice and in the dark so they could be pipetted into 10- and 20-μL aliquots in 1.5 mL microcentrifuge tubes. The solutions were frozen at […] with lids closed tightly and the tubes covered with foil.
Prior to treating the cells, a tube of the test compound was removed from the freezer and placed under a biosafety hood to evaporate the chloroform in the tubes. Then, dimethyl sulfoxide (DMSO) was added to the tubes to make the correct concentration to use in the experiment (0.1 M stock). The tubes were vortexed, and warm media with 10% FBS was slowly added to make the correct working concentrations to be used in the experiment. The compounds were directly added to each well for treatment.
(§1) U87MG cells were seeded in a 24-well plate, 5000 cells per well, and incubated overnight at 37° C. in serum-free media. The next day they were treated in triplicate with 50 and 100 μM of each test compound (1), (2), (3), (4), and (5) and the reference compound FTS. After five days, the cells were trypsinized (0.5%), stained with trypan blue, and counted to determine the cell number per well. The half-maximal inhibitory concentration (IC50) values were calculated using Multiplex Reader-Fit software made by MiraiBio Group, Hitachi Solutions America, Ltd. In a typical experiment, the control wells averaged 138,000 cells. The results are presented graphically in FIG. 1. The test compounds at 50 μM allowed the following U87MG cell proliferation compared to control: compound (1)—37%, compound (2)—18%, compound (3)—10%, compound (4)—40%, and compound (5)—0%. The reference compound FTS at 50 μM allowed 7% cell proliferation compared to control.
To further evaluate compounds (3) and (5), which inhibited the most cell growth in FIG. 1, more U87MG cells were seeded in 24-well plates, 5000 cells per well, and incubated overnight at 37° C. in serum-free media. The cells were treated the next morning in media with 5% serum in triplicate with standard concentrations of 6.25, 12.5, 25, and 50 μM of each test compound (3) and (5) and the reference compound FTS. After five days of treatment, the cells were trypsinized (0.5%) and then stained with trypan blue. Cells were counted to determine the number of cells per well. Again, the IC50 values were calculated using Multiplex Reader-Fit software made by MiraiBio Group, Hitachi Solutions America, Ltd. In a typical experiment, the control wells averaged 56,000 cells. The results are presented graphically in FIG. 2. The test compounds at 25 μM allowed the following U87MG cell proliferation compared to control: compound (3)—69% and compound (5)—0%. The reference compound FTS at 25 μM allowed over 50% cell proliferation compared to control.
Since the doses of compound (5) used above killed all of the cells, the dose curve was set up again using even lower doses of compound (5). U87MG cells were seeded in 24-well plates, 5000 cells per well, and incubated overnight at 37° C. in serum-free media. The cells were treated in triplicate with 6.25, 12.5, 25, and 50 μM of the reference compound FTS and 0.3125, 0.625, 1.25, 2.5, and 5.0 μM of the test compound (5) in media with 5% serum for five days. Then, the cells were trypsinized (0.5%) and stained with trypan blue, and the cell number per each well was determined. […]

Test [2] concerns GBM6 cells. The experiment in a line: IC50 assay with GBM6 glioblastoma cells. Format: cell-based. As to conditions: Homo sapiens, 1 to 5 μM, read-out: half-maximal effect on cell viability. The procedure:
as §1
An IC50 assay similar to Example 6 above was performed with GBM6 cells prepared from minced, freshly harvested tumor tissue. GBM6 cells were grown in the presence of compound (5) at concentrations ranging from 1 to 5 μM.

Test [3] has as its system JW16 cells. Description: IC50 assay with JW16 mouse MPNST cells. Format: cell-based. As to conditions: 0.5 to 20 μM, read-out: half-maximal effect on viability. The method, then: as §1
Mouse models of NF-1 related MPNST have been made. Cells from two such mice, JW16 and JW19, have been isolated and propagated. The JW16 and JW19 cells were subjected to IC50 assays similar to Example 6 above.

Test [4] has as its system primary human lung fibroblasts. The experiment in a line: Inhibition of TGF-β induced myofibroblast formation (α-SMA Western blot). It is filed as cell-based. As to conditions: Homo sapiens, Fibroblast, TGF-β 72 hours, 0.5 to 2 μM. The procedure: Primary human lung fibroblasts were stimulated for 72 hours with transforming growth factor beta (TGF-β) to induce their differentiation to an alpha smooth muscle actin (α-SMA) expressing activated myofibroblasts cell fate. […] The activin like kinase receptor (ALK5) inhibitor SB431542 was used as a positive control. Myofibroblast formation was evaluated by Western blot by examining changes in α-SMA levels.
A general note: A western blot detects proteins with antibodies after separation by electrophoresis.

Test [5] deals with EJ cells. Description: IC50 assay with EJ bladder cancer cells. As to conditions: Homo sapiens, 1.5 to 25 μM, read-out: half-maximal inhibition of viability. It is filed as cell-based. The procedure:
as §1
EJ bladder cancer cells, which harbor a H-Ras mutation, were subjected to an IC50 assay similar to Example 6 above. EJ cells were grown in concentrations of compound (5) ranging from 1.5 to 25 μM.

Test [6] concerns ECC1 cells. Description: IC50 assay with ECC1 endometrial cancer cells. Format: cell-based. The note with it: Homo sapiens, ECC-1, 1 to 50 μM, read-out: half-maximal inhibition of viability. The procedure:
as §1
(§2) ECC1 (well differentiated) and USPC1 (poorly differentiated) endometrial cancer cells were subjected to IC50 assays similar to Example 6 above. The cells were grown in concentrations of compound (5) ranging from 1 to 50 μM.

Test [7] concerns USPC1 cells. Description: IC50 assay with USPC1 endometrial cancer cells. It is filed as cell-based. The note with it: 1 to 50 μM, read-out: half-maximal inhibition of viability. The method, then:
as §1, §2

In test [8] the test system is ST88-14 cells. Description: ST88-14 MPNST flank tumors in nude mice. The note with it: 5 mg/kg or 10 mg/kg intraperitoneally once a day. It is filed as in vivo, mouse. The method, then: ST88-14 cells were injected into the flanks of nude mice and tumors were allowed to grow. When their lengths and widths could readily be determined by palpation, the animals were treated with compound (5) at doses of 5 mg/kg or 10 mg/kg intraperitoneally once a day or vehicle. Tumor dimensions were determined over the course of a 35 day treatment period at the end of which the animals were killed. At this point the tumors were removed and weighed.

Consider `CC(C)=CCC/C(C)=C/CC/C(C)=C/CSc1ccccc1C1=NCCN1` [compound (5), 2-(2-{[(2E,6E)-3,7,11-trimethyldodeca-2,6,10-trien-1-yl]sulfanyl}phenyl)-4,5-dihydro-1H-imidazole], for which the “U87MG cell proliferation compared to control” value in test [1] (2.5 μM, media with 5% serum, five days (FIG. 2)) is recorded as 56%; in test [1] (25 μM, media with 5% serum, five days (FIG. 2)), 0%; in test [1] (50 μM, five days, trypan blue cell count (FIG. 1)), 0%. For the same compound, the IC50 in test [1] (Homo sapiens, U-87 MG, value quoted in Example 7, read-out: IC50 as determined on the U87MG cells) came out at 2.5 µM; in test [2], 3.5 µM; in test [3] it was 2.2 µM; in test [5], 2.5 µM; in test [6], 4 µM; in test [7], 2 µM. For the same compound, the EC50 in test [4] was ~1 µM. Besides, in test [8] (35 day treatment), the tumor size result is “dose dependent decrease”. The tumor weight result in test [8] (end of 35 day treatment) is “dose dependent decrease”.

For orientation: EC50 means the concentration that produces a half-maximal response. Read a low EC50 as an effect from little substance.
